“Also recorded” adds a separate entry of the source. Where two headings read alike, the source gives them in different places.
Tests used:
[1] = SEM fiber morphology after exposure to aqueous environment (water, DMEM); format: physicochemical; conditions: genipin 0.03-0.1 M in absolute ethanol or isopropanol, crosslinking for 5 days
Protocol: All samples were imaged using a Scanning Electron Microscope (Leo 1530) and diameters of 100 randomly selected fibers were measured, per sample, using image processing software (ImageJ). One-way ANOVA using the Tukey test was used to compare the difference between the diameters of crosslinked samples (Dcrosslink) and after exposure to growth media for 1 and 3 days (Dfinal). If a significant difference existed, the percent swelling was then calculated using the equation: […]
The experimental parameters investigated were: solvent (isopropanol, ethanol), water content (0%, 1%, 3% and 5%) and reaction time (1, 3 and 5 days). All electrospun collagen fiber samples were exposed to air and the reaction temperature was maintained at 37° C. in an incubator. The genipin concentration was fixed at 11.3 mg of genipin per mg of collagen, which was sufficient for the crosslinking reaction to reach completion (Yao, C. H., et al., Materials Chemistry and Physics 2004, 83, (2-3), 204-208). After crosslinking, the collagen samples were washed in ethanol or isopropanol (depending on the solvent used) for further characterization.

[2] = test system: cells; conditions: cited from earlier work; for cytotoxicity: crosslinking agent
[3] = literature reports on alternative crosslinkers, cited from earlier work

Compound: COC(=O)C1=CO[C@@H](O)[C@@H]2C(CO)=CC[C@H]12 [genipin]
- morphology and overall architecture of collagen nanofibers after exposure to water [1]: failed to maintain the morphology
- cell proliferation ([2]; compared to glutaraldehyde): more stimulative to cell proliferation
- cytotoxicity [2]: low cytotoxicity

Compound: O=C1CCC(=O)N1O [NHS, N-hydroxysuccinimide]
- swelling / morphology of crosslinked collagen fibers in water [3]: significant degree of swelling

Compound: CCN=C=NCCCN(C)C [EDC, 1-ethyl-3-(3-dimethylaminopropyl) carbodiimide]
- swelling / morphology of crosslinked collagen fibers in water [3]: significant degree of swelling

Compound: O=CCCCC=O [glutaraldehyde, Glutaraldehyde]
- swelling / morphology of crosslinked collagen fibers in water [3]: not very effective in controlling its swelling properties
- swelling / morphology of crosslinked collagen fibers in water ([3]; listed as GA): failed to maintain collagen fiber morphology; also recorded: swell significantly in water
- cytotoxicity [2]: highly cytotoxic

From patent publication US20100183699A1, “COMPOSITIONS AND METHODS TO CROSS LINK POLYMER FIBERS” (priority 2009, published 2010)
